Values of other authors, collected in patent US20150246061A1, “VITAMIN D ANALOGUES FOR THE TREATMENT OF A NEUROLOGICAL DISORDER” (CELUS PHARMACEUTICALS, INC., priority 2012, published 2015).

Conditions: adult humans, longer treatment periods

C=C1/C(=C\C=C2/CCC[C@]3(C)C([C@@H](C)C/C=C/C(O)(CC)CC)=CC[C@@H]23)C[C@@H](O)C[C@@H]1F [Elocalcitol, elocalcitol]
daily dose up to which elocalcitol has been shown to be safe: ≤ 150 µg
